Common to all, as to assay: DSF 100 kinase selectivity screen;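 note: compound tested at 20 µM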
Holding throughout (format): binding

For assay [1], the target named is T1, ~100 representative kinases (Homo sapiens, UniProt Q9Y2H1).
T1 construct: Recombinant protein kinase domains with a concentration of 2 μM
As to conditions: Protein STK38L; DSF; average of three replicates. The essentials:
(§1)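 Each kinase domain, at 2 μM, is mixed with 20 μM test compound and SYPRO Orange in Hepes (20 mM, pH 7.5) with 500 mM NaCl. Temperature is then raised at 3°C/min and fluorescence-monitored unfolding yields the melting temperature change, ΔTm in degrees Celsius.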

Assay [2] addresses T2, ~100 representative kinases (Homo sapiens, UniProt P54762).
T2 construct: Recombinant protein kinase domains with a concentration of 2 μM
T2 sequence (P54762 18-984): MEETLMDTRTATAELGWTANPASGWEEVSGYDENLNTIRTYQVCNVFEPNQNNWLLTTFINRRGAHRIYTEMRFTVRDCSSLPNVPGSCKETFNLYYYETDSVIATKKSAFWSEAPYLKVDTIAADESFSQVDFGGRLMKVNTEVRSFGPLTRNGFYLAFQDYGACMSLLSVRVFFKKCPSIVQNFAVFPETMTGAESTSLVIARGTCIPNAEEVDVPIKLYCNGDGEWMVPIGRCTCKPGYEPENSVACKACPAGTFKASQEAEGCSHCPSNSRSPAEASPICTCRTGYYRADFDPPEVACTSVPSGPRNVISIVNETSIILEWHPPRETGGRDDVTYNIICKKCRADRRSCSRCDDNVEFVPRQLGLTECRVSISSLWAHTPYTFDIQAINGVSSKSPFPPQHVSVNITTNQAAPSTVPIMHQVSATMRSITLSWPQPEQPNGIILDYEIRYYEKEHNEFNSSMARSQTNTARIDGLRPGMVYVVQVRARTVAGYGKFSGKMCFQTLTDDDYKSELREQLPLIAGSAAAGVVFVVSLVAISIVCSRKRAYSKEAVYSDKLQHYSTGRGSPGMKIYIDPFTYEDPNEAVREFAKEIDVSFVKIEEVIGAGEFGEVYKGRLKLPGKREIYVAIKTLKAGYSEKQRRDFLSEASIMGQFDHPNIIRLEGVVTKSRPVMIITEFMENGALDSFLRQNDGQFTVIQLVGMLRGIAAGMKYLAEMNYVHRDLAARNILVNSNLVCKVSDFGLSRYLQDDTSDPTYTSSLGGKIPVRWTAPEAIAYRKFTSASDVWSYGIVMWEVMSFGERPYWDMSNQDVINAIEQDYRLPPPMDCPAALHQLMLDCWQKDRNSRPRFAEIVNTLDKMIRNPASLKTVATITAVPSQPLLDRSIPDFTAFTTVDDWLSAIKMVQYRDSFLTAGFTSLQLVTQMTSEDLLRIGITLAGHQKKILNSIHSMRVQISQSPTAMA
As to conditions: Protein EPHB1; average of three replicates. In a few lines: as §1

Assay [3] addresses T3, ~100 representative kinases (Homo sapiens, UniProt P34947).
T3 construct: Recombinant protein kinase domains with a concentration of 2 μM
To be noted: protein GPRK5; average of three replicates. The essentials:
as §1

The target in assay [4] is T4, ~100 representative kinases (Homo sapiens, UniProt Q9Y243).
T4 construct: Recombinant protein kinase domains with a concentration of 2 μM
T4 sequence (Q9Y243 whole entry, the tested form may be a part): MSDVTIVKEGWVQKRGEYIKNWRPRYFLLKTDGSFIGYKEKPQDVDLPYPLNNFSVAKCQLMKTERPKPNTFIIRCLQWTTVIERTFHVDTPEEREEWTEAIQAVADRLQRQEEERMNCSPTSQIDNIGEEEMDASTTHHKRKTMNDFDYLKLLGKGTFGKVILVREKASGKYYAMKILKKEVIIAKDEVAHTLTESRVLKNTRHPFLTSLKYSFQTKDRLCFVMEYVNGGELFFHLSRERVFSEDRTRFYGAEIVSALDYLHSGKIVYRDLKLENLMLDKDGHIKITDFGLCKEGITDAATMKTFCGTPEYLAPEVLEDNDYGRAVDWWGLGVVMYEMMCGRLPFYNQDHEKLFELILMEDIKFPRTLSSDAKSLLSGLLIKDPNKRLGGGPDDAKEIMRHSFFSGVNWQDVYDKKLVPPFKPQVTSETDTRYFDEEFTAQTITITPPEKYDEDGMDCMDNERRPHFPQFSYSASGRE
To be noted: Protein AKT3; average of three replicates. In a few lines:
as §1

The target of assay [5] is T5, ~100 representative kinases (Homo sapiens, UniProt P49674).
T5 construct: Recombinant protein kinase domains with a concentration of 2 μM
T5 sequence (P49674 whole entry, the tested form may be a part): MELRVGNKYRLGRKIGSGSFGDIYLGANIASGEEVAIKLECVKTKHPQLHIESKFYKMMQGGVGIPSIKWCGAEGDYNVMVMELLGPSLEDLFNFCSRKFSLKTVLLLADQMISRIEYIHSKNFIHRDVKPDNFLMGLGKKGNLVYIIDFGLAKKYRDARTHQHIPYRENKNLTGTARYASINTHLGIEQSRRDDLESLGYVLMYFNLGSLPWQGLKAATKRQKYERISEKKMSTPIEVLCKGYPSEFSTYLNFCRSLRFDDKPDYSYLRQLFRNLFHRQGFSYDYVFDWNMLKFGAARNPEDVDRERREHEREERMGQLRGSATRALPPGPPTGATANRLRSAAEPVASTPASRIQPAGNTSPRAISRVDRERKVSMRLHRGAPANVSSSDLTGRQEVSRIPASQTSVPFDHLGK
To be noted: Protein CSNK1E; average of three replicates. The essentials:
as §1

Assay [6] deals with T6, ~100 representative kinases (Homo sapiens, UniProt P51813).
T6 construct: Recombinant protein kinase domains with a concentration of 2 μM
T6 sequence (P51813 1-675): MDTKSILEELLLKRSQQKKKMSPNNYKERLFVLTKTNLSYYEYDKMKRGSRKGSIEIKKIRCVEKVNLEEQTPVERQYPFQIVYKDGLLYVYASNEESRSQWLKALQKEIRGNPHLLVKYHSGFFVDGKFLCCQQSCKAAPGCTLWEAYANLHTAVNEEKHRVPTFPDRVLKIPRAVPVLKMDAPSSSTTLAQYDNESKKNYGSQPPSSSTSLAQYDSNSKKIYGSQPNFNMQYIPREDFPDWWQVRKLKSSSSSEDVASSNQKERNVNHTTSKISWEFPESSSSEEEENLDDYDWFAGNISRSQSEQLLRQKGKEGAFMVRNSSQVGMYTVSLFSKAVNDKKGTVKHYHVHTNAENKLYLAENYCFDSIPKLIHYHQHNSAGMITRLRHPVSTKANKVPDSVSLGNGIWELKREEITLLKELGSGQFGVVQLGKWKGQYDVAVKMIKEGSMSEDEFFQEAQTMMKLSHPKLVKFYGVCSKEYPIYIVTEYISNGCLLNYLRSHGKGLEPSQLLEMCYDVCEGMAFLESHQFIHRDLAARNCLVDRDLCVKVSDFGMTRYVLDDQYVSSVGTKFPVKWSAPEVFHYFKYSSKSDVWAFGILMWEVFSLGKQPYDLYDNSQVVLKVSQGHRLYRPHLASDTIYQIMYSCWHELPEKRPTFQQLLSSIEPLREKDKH
As to conditions: Protein BMX; average of three replicates. The essentials:
as §1

For assay [7], the target named is T7, ~100 representative kinases (Homo sapiens, UniProt P49137).
T7 construct: Recombinant protein kinase domains with a concentration of 2 μM
T7 sequence (P49137 whole entry, the tested form may be a part): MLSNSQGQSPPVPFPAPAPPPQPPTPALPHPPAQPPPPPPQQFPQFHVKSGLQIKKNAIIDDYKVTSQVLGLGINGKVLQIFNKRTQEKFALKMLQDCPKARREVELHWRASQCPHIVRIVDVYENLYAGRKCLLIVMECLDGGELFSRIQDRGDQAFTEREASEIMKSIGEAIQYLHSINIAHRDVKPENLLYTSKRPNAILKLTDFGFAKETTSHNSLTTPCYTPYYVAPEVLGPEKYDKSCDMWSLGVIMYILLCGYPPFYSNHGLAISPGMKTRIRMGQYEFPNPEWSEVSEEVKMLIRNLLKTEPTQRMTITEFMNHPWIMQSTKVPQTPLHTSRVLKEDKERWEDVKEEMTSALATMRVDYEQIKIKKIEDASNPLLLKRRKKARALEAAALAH
To be noted: protein MAPKAPK2; average of three replicates. The essentials:
as §1

T1 sequence (Q9Y2H1 whole entry, the tested form may be a part): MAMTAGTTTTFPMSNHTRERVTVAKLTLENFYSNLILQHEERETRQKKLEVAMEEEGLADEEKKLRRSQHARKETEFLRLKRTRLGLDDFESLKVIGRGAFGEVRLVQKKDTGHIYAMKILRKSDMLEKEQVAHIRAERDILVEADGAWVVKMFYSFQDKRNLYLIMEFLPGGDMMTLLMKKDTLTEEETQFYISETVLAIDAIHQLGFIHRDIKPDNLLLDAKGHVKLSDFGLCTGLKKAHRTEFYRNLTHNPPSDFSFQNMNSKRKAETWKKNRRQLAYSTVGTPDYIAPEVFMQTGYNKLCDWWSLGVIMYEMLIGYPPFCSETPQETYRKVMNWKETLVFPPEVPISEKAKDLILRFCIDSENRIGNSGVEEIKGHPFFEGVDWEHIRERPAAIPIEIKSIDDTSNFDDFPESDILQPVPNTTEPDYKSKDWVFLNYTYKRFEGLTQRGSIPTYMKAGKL
T3 sequence (P34947 whole entry, the tested form may be a part): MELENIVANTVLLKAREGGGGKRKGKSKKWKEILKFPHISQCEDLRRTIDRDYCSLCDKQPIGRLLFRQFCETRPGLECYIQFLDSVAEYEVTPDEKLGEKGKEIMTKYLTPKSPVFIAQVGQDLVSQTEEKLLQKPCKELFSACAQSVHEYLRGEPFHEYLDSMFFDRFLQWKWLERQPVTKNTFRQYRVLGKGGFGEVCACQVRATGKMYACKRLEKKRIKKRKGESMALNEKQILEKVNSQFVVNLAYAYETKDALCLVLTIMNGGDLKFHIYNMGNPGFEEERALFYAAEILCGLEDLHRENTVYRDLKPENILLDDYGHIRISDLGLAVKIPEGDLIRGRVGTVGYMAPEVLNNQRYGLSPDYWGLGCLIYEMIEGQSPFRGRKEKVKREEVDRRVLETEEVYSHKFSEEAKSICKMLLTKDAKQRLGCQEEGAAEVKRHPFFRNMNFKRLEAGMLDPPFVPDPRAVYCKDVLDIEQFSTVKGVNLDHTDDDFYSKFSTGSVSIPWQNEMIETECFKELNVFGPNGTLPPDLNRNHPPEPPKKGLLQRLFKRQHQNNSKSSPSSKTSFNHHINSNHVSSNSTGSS

Take `O=C(Nc1cccc(-c2c[nH]c3ncnc(N4CCOCC4)c23)c1)C1(C(=O)Nc2ccc(F)c(Cl)c2)CC1` [Compound 18]: the dTm in assay [1] came to 0.59 K; in assay [2], 3.41 K; in assay [3], 0.43 K; in assay [4], 1.04 K; in assay [5], 5.76 K; in assay [6], 1.13 K. The dTm in assay [7] was determined as 0.22 K.

Take `O=C(Nc1cccc(-c2c[nH]c3ncnc(N4CCOCC4)c23)c1)C1(C(=O)Nc2ccc(F)c(Br)c2)CC1` [Compound 19]: the dTm in assay [1] was 0.00 K; in assay [2] it was 1.85 K; in assay [3], 0.28 K; in assay [4] it was -0.15 K; in assay [5], 6.33 K; in assay [6], 0.24 K. For the same compound, the dTm in assay [7] is given as -0.94 K.

Consider `Cc1cc(NC(=O)C2(C(=O)Nc3cccc(-c4c[nH]c5ncnc(N6CCOCC6)c45)c3)CC2)ccc1F` [Compound 20], for which the dTm was determined as 0.36 K in assay [1]; 4.46 K in assay [2]; 1.05 K in assay [3]; 0.62 K in assay [4]; 6.52 K in assay [5]; 1.40 K in assay [6]. Moreover, in assay [7], the dTm is -0.28 K.

On to `COc1cc(NC(=O)C2(C(=O)Nc3cccc(-c4c[nH]c5ncnc(N6CCOCC6)c45)c3)CC2)ccc1F` [Compound 21], for which the dTm is recorded as -0.18 K in assay [1]; 1.66 K in assay [2]; 0.34 K in assay [3]; 0.58 K in assay [4]; 5.78 K in assay [5]; 0.38 K in assay [6]. In assay [7], this compound displayed a dTm of -0.29 K.

Turning to `CC(C)(C)c1cccc(NC(=O)C2(C(=O)Nc3cccc(-c4c[nH]c5ncnc(N6CCOCC6)c45)c3)CC2)c1` [Compound 22], the dTm in assay [1] is given as -2.35 K; in assay [2], -3.38 K; in assay [3], -0.26 K; in assay [4] it was 0.15 K; in assay [5] it was 6.66 K; in assay [6] it was 1.67 K. This compound had a dTm in assay [7] of -0.67 K.

With `O=C(Nc1cccc(-c2c[nH]c3ncnc(N4CCOCC4)c23)c1)C1(C(=O)Nc2ccc(F)cc2F)CC1` [Compound 23], the dTm in assay [1] is 0.0847 K; in assay [2], 2.11 K; in assay [3], -0.45 K; in assay [4], 0.68 K; in assay [5] it was 3.09 K; in assay [6], 0.22 K. Further, in assay [7], the dTm is -0.35 K.

Consider `Cc1cc(F)ccc1NC(=O)C1(C(=O)Nc2cccc(-c3c[nH]c4ncnc(N5CCOCC5)c34)c2)CC1` [Compound 24], for which the dTm is on record as -0.0467 K in assay [1]; 1.63 K in assay [2]; 0.16 K in assay [3]; 0.50 K in assay [4]; 3.91 K in assay [5]; 0.32 K in assay [6]. Further, the dTm in assay [7] is given as -0.55 K.

`O=C(Nc1cccc(-c2c[nH]c3ncnc(N4CCOCC4)c23)c1)C1(C(=O)Nc2cc(Br)c(F)cc2F)CC1` [Compound 25]: the dTm in assay [1] was 0.00 K; in assay [2], -4.24 K; in assay [3], 0.32 K; in assay [4], -0.48 K; in assay [5], 2.14 K; in assay [6], 1.31 K. Moreover, in assay [7], the dTm is on record as 0.00186 K.

For `O=C(Nc1cccc(-c2c[nH]c3ncnc(N4CCOCC4)c23)c1)C1(C(=O)Nc2ccc(F)c(Br)c2F)CC1` [Compound 26], the dTm in assay [1] is recorded as -2.16 K; in assay [2], -6.10 K; in assay [3], 0.25 K; in assay [4], -0.00683 K; in assay [5] it was 4.57 K; in assay [6] it was -0.35 K. The compound further returned a dTm in assay [7] of -1.06 K.

Take `O=C(Nc1cc(F)cc(Br)c1)C1(C(=O)Nc2cccc(-c3c[nH]c4ncnc(N5CCOCC5)c34)c2)CC1` [Compound 27]: the dTm was -0.80 K in assay [1]; -2.93 K in assay [2]; 0.40 K in assay [3]; 0.53 K in assay [4]; 4.18 K in assay [5]; 0.52 K in assay [6]. The dTm in assay [7] is 0.07 K.

For `CC(C)(C)c1cc(NC(=O)Nc2cccc(-c3c[nH]c4ncnc(N5CCOCC5)c34)c2)n(-c2ccc3ncccc3c2)n1` [Compound 28], the dTm in assay [1] worked out at 0.64 K; in assay [2], 11.35 K; in assay [3], 0.98 K; in assay [4], 0.49 K; in assay [5] it was 1.81 K; in assay [6], 2.95 K. The dTm in assay [7] is recorded as 0.51 K.

On to `Cc1ccc(-n2nc(C(C)(C)C)cc2NC(=O)Nc2cccc(-c3c[nH]c4ncnc(N5CCOCC5)c34)c2)cc1` [Compound 29], for which the dTm is -0.41 K in assay [1]; 5.08 K in assay [2]; 0.00 K in assay [3]; 0.14 K in assay [4]; 0.48 K in assay [5]; 2.21 K in assay [6]. This compound also gave a dTm in assay [7] of -0.55 K.

Take `Cc1ccc(-n2nc(C(C)(C)C)cc2NC(=O)Nc2cccc(-c3c[nH]c4nc(Cl)nc(N5CCOCC5)c34)c2)cc1` [Compound 30]: the dTm in assay [1] is given as -1.01 K; in assay [2] it was -0.80 K; in assay [3] it was -3.24 K; in assay [4], -0.99 K; in assay [5] it was -2.01 K; in assay [6], -1.99 K. Also, the dTm in assay [7] is -0.50 K.

For `CC(=O)N1CCN(c2nc(Cl)nc3[nH]cc(-c4cccc(NC(=O)Nc5cc(C(C)(C)C)nn5-c5ccc(C)cc5)c4)c23)CC1` [Compound 31], the dTm in assay [1] is on record as -0.73 K; in assay [2], 0.39 K; in assay [3] it was -1.15 K; in assay [4] it was -0.49 K; in assay [5], -1.75 K; in assay [6], -1.76 K. The compound further registered a dTm in assay [7] of -0.40 K.

Turning to `CCSc1nc(NC)c2c(-c3cccc(NC(=O)Nc4cc(C(C)(C)C)nn4-c4ccc(C)cc4)c3)c[nH]c2n1` [Compound 32], the dTm in assay [1] is -0.75 K; in assay [2], 0.21 K; in assay [3], -0.61 K; in assay [4] it was 0.30 K; in assay [5], -0.41 K; in assay [6], -0.26 K. In assay [7], this compound returned a dTm of 0.11 K.

`COc1cc(C(=O)N2CCOCC2)c(F)cc1Nc1nc(N(C)C)c2c(Cl)c[nH]c2n1` [Compound 36]: the dTm in assay [1] is listed as -1.36 K; in assay [2] it was -0.27 K; in assay [3] it was 0.46 K; in assay [4], 0.29 K; in assay [5], 4.43 K; in assay [6], -0.34 K. The same compound returned a dTm in assay [7] of 2.68 K.

The values are drawn from PMC12136037, “Type II kinase inhibitors that target Parkinson’s disease–associated LRRK2” (Science Advances, 2025).
